# Results published in patent US20170182031A1, “REDUCING DRUG LIKING IN A SUBJECT” (Purdue Pharma, priority 2014, published 2017).
# Read-outs that look alike come from different tables or passages of the source.
# Assays:
# [1] = cited from earlier work
smiles,measurement,setting,value
C=CCN1CC[C@]23c4c5ccc(O)c4O[C@H]2C(=O)CC[C@@]3(O)[C@H]1C5 [naloxone],Time by which mean plasma naloxone concentration was BLQ,naloxone 1.875 μg/kg IV,≤ 15 min
same,Time by which mean plasma naloxone concentration was BLQ,naloxone 15 μg/kg IV,≤ 120 min
same,Time of maximum mean plasma naloxone concentration,"post-infusion, each treatment",5 min
same,oral bioavailability,[1],< 3%
